Test results published in ChEMBL document CHEMBL5247679, “Novel Quinoline Compounds as KRAS Inhibitors for Treating Cancer” (ACS Med Chem Lett, 2023).

Legend:
GTPase KRas [1] = biological target: GTPase KRas (Homo sapiens, UniProt P01116, G12D); assay: Inhibition of KRAS G12D mutant (unknown origin) preincubated for 4 hrs followed by SOS1 addition and measured after 2 hrs by fluorescence based analysis
GTPase KRas [2] = biological target: GTPase KRas (Homo sapiens, UniProt P01116, G12V); assay: Inhibition of KRAS G12V mutant (unknown origin) preincubated for 4 hrs followed by SOS1 addition and measured after 3 hrs by fluorescence based analysis
GTPase KRas (Homo sapiens, UniProt P01116, G12V), sequence (P01116 whole entry G12V): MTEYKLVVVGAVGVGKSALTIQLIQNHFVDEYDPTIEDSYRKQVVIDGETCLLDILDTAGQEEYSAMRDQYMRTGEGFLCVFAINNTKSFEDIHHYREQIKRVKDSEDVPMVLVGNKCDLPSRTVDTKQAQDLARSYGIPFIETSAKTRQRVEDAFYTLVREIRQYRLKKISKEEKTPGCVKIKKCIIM

GTPase KRas (Homo sapiens, UniProt P01116, G12D), sequence (P01116 whole entry G12D): as the sequence (P01116 whole entry G12V) above, with V12D counted along it

Cc1nc2c(F)c(-c3cccc(Cl)c3Cl)c(CCC#N)cc2c2c1cc([C@@H](C)NS(=O)(=O)C1CC1)n2[C@H]1[C@H]2CN[C@@H]1C2
IC50 (GTPase KRas [1]): ≤ 100 nM | IC50 (GTPase KRas [2]): ≤ 100 nM

Cc1nc2c(F)c(-c3cccc(Cl)c3Cl)c(CCC#N)cc2c2c1cc([C@@H](C)NC(=O)c1cscn1)n2[C@H]1[C@H]2CN[C@@H]1C2
IC50 (GTPase KRas [1]): ≤ 100 nM | IC50 (GTPase KRas [2]): ≤ 100 nM

Cc1nc2c(F)c(-c3cccc(Cl)c3Cl)c(CCC#N)cc2c2c1cc([C@@H](C)NC(=O)c1ccncn1)n2[C@H]1[C@H]2CN[C@@H]1C2
IC50 (GTPase KRas [1]): ≤ 100 nM | IC50 (GTPase KRas [2]): ≤ 100 nM

CN(C)C1(C)CN(c2nc3c(F)c(-c4cccc5ccc(F)cc45)c(CCC#N)cc3c3c2cc(CN2CCOCC2=O)n3[C@@H]2[C@@H]3CN[C@H]2C3)C1
IC50 (GTPase KRas [1]): ≤ 100 nM | IC50 (GTPase KRas [2]): ≤ 100 nM

Cc1cc2c(-n3cncn3)nc3c(F)c(-c4cc(O)cc5ccc(Cl)cc45)c(CCC#N)cc3c2n1[C@H]1[C@H]2CN[C@@H]1C2
IC50 (GTPase KRas [1]): ≤ 100 nM | IC50 (GTPase KRas [2]): ≤ 100 nM

C[C@H](Oc1nc2c(F)c(-c3csc4ccccc34)c(CCC#N)cc2c2c1cc(CN1CCCC1=O)n2[C@H]1[C@H]2CN[C@@H]1C2)[C@@H]1CCCN1C
IC50 (GTPase KRas [1]): ≤ 100 nM | IC50 (GTPase KRas [2]): ≤ 100 nM
